One series deals with Huh7. In words: SRB cytotoxicity assay. The format is cell-based, human. Particulars: Homo sapiens, Huh-7, 72 h, 72 h treatment. Here is the method:
(§1) HepG2, FOCUS, Hep3B, Mahlavu, Huh7, Hep40, and PLC-PRF-5 hepatocellular carcinoma cells; MCF-7, MDA-MB-231, MDA-MB-468, SKBR3, and ZR-75 breast cancer cells; and normal-like epithelial MCF-10A breast cells were cultured in low-glucose Dulbecco’s modified Eagle’s medium (DMEM) (Biological Industries-BI) supplemented with 10% fetal bovine serum (FBS) (Gibco/Thermo Fisher Scientific), 2 mM L-Glutamine (Gibco/Thermo Fisher Scientific), 100 Units/mL Penicillin/Streptomycin, and 0.1 mM non-essential amino acid (Gibco/Thermo Fisher Scientific). SNU475 hepatocellular carcinoma cells were maintained in RPMI (Biological Industries-BI) supplemented with 10% fetal bovine serum (FBS) (Gibco/Thermo Fisher Scientific), L-Glutamine (Gibco/Thermo Fisher Scientific), and 100 Units/mL Penicillin/Streptomycin, while ZR-75 breast cancer cells were cultured RPMI (Biological Industries-BI) supplemented with 10% fetal bovine serum (FBS) (Gibco/Thermo Fisher Scientific), 1× sodium pyruvate, and %4.5 glucose. Normal-like MCF-10A breast cells were sustained in DMEM/HAM’S F12 (Hyclone) supplemented with 10% fetal bovine serum (FBS) (Gibco/Thermo Fisher Scientific), EGF (20 ng/mL), Hydrocortisone ([…]), cholera toxin (100 ng/mL), insulin (10 μg/mL), and 100 Units/mL Penicillin/Streptomycin. The cells were cultivated at 37 °C in a humidified incubator under 5% CO2.
(§2) Mahlavu, FOCUS, SNU475 (1000 cell/well in 150 μL/well); Huh7, MCF7 (2500 cell/well in 150 μL/well); HepG2, Hep3B, SKBR3 (3000 cell/well in 150 μL/well); PLC-PRF-5, Hep40 (5000 cell/well in 150 μL/well); MDA-MB-231, MDA-MB-468, MCF10A (6000 cell/well in 150 μL/well); and ZR-75 (7500 cell/well in 150 μL/well) were cultured in 96-well plates and were inoculated in an incubator for 24 hours. The compounds were dissolved in dimethyl sulfoxide (DMSO) (Sigma, St Louis, MO) as a 20 mM stock solution. The treatment of cells with the compounds was done in a concentration range starting from 40 to 2.5 μM. The compounds which were below 2.5 μM were tested in a concentration range from 2.5 to 0.15 μM. End of the 72h compound treatment, the cells were fixed using 10% (v/v) trichloroacetic acid (MERCK) for an hour and washed with ddH2O, and left for air-drying. The fixed plates were stained with 50 μL of sulforhodamine B (SRB) solution (Sigma) at RT for 10 min. To remove unbound SRB dye, acetic acid was used to wash cells three times and left for drying. The protein-bound SRB was solubilized with 10 mM Tris-base (Sigma) and their absorbance was measured with a 96-well plate reader at 515 nm wavelength (ELx800, Biotek). The IC50 values of compounds were calculated in comparison with control group DMSO. Data with R^2 values larger than 0.9 are considered significant.
Background: The SRB assay estimates cell density from bound dye.

The test system of a further series is MCF7. In words: SRB cytotoxicity assay. Format: cell-based, human. The note with it: 72 h treatment. How it is done: as §1, §2
Another series deals with Mahlavu. In words: SRB cytotoxicity assay. Format: cell-based, human. The note with it: 72 h treatment. How it is done:
as §1, §2

Regarding `Cc1cccnc1COc1ccc(-c2noc(C)c2-c2ccc(Cl)cc2)cc1` [compound 36, 4-(4-Chlorophenyl)-5-methyl-3-(4-((3-methylpyridin-2-yl)methoxy)phenyl)isoxazole], the melting point was 138.7 to 141.2 °C. In addition, in the series with Huh7, the IC50 is 9.4 µM. In addition, the IC50 in the series on MCF7 was greater than 20 µM. The IC50 with MCF7 (Homo sapiens, MCF7, 72 h) is no less than 20 µM.

`Cc1cccc(COc2ccc(-c3noc(C)c3-c3ccc(Cl)cc3)cc2)n1` [compound 37, 4-(4-Chlorophenyl)-5-methyl-3-(4-((6-methylpyridin-2-yl)methoxy)phenyl)isoxazole] displayed a melting point of 126.1 to 127.5 °C. Also, in the series with Huh7, the midpoint of inhibition, the IC50, lay at 6.9 µM. This compound also registered an IC50 in the series with MCF7 (Homo sapiens, MCF7, 72 h) of 12.9 µM.

As to `Cc1onc(-c2ccc(OCc3ccc(Cl)nc3)cc2)c1-c1ccc(Cl)cc1` [compound 38, 4-(4-Chlorophenyl)-3-(4-((6-chloropyridin-3-yl)methoxy)phenyl)-5-methylisoxazole], the melting point lay within 168.2 to 170.8 °C. For the same compound, the IC50 in the series with Huh7 is greater than 20 µM. This compound also gave an IC50 in the series with MCF7 (Homo sapiens, MCF7, 72 h) greater than 20 µM.

For `Cc1noc(C)c1COc1ccc(-c2noc(C)c2-c2ccc(Cl)cc2)cc1` [compound 39, 4-(4-Chlorophenyl)-3-(4-((3,5-dimethylisoxazol-4-yl)methoxy)phenyl)-5-methylisoxazole], the melting point fell in the range of 138.9 to 141.3 °C. This compound also registered an IC50 in the series on Huh7 of 3.7 µM. For the same compound, the IC50 in the series with MCF7 (Homo sapiens, MCF7, 72 h) was greater than 20 µM.

As for `Cc1cc(COc2ccc(-c3noc(C)c3-c3ccc(Cl)cc3)cc2)n(C)n1` [compound 40, 4-(4-Chlorophenyl)-3-(4-((1,3-dimethyl-1H-pyrazol-5-yl)methoxy)phenyl)-5-methylisoxazole], the melting point fell in the range of 156.4 to 157.9 °C. In addition, in the series with Huh7, the IC50 was 0.9 µM. For the same compound, in the series with MCF7 (Homo sapiens, MCF7, 72 h), the IC50 came out at 12.2 µM.

The compound `Cc1onc(-c2ccc(OCc3cncn3C(C)C)cc2)c1-c1ccc(Cl)cc1` [compound 41, 4-(4-Chlorophenyl)-3-(4-((1-isopropyl-1H-imidazol-5-yl)methoxy)phenyl)-5-methylisoxazole] returned a melting point of 168.4 to 170.7 °C. The compound further came in with an IC50 with Huh7 of 2.5 µM. The same compound had an IC50 with MCF7 (Homo sapiens, MCF7, 72 h) of 16.7 µM.

The compound `Cc1onc(-c2ccc(OCc3ccc(C(F)(F)F)o3)cc2)c1-c1ccc(Cl)cc1` [compound 42, 4-(4-Chlorophenyl)-5-methyl-3-(4-((5-(trifluoromethyl)furan-2-yl)methoxy)phenyl) isoxazole] came in with a melting point of 105.7 to 106.8 °C. In the series with Huh7, the IC50 is 13.4 µM. Moreover, the concentration for half-maximal inhibition (IC50) with MCF7 (Homo sapiens, MCF7, 72 h) came out at 14 µM.

`Cc1ccccc1COc1ccc(-c2noc(C)c2-c2ccccc2Cl)cc1` [compound 44, 5-Methyl-4-(2-chlorophenyl)-3-(4-((2-methylbenzyl)oxy)phenyl)isoxazole] came in with a melting point of 103.8 to 104.4 °C. Further, in the series on Huh7, the IC50 was greater than 20 µM. The midpoint of inhibition in the series on MCF7 (Homo sapiens, MCF7, 72 h), the IC50, lay at 9.9 µM.

`Cc1ccccc1COc1ccc(-c2noc(C)c2-c2ccc(F)cc2)cc1` [compound 45, 5-Methyl-4-(4-fluorophenyl)-3-(4-((2-methylbenzyl)oxy)phenyl)isoxazole]: the melting point lay within 119 to 120.5 °C. In the series with Huh7, it took 16.7 µM to reach half-maximal inhibition (IC50). Moreover, the IC50 in the series on MCF7 (Homo sapiens, MCF7, 72 h) was greater than 20 µM.

On to `COc1ccc(-c2c(-c3ccc(OCc4ccccc4C)cc3)noc2C)cc1` [compound 46, 5-Methyl-4-(4-methoxyphenyl)-3-(4-((2-methylbenzyl)oxy)phenyl)isoxazole], for which the melting point fell in the range of 121.3 to 122.7 °C. Also, the IC50 in the series on Huh7 came out at 8.9 µM. Besides, the IC50 in the series with MCF7 (Homo sapiens, MCF7, 72 h) worked out at 12.8 µM.

In turn, `Cc1ccc(-c2c(-c3ccc(OCc4ccccc4C)cc3)noc2C)cc1` [compound 47, 5-Methyl-4-(4-methylphenyl)-3-(4-((2-methylbenzyl)oxy)phenyl)isoxazole] showed a melting point of 130.8 to 131.8 °C. The compound further returned an IC50 in the series with Huh7 of 1.8 µM. 4.7 µM corresponded to half-maximal inhibition in the series with MCF7 (Homo sapiens, MCF7, 72 h) (IC50).

`Cc1ccccc1COc1ccc(-c2noc(C)c2-c2ccc(C#N)cc2)cc1` [compound 48, 5-Methyl-4-(4-cyanophenyl)-3-(4-((2-methylbenzyl)oxy)phenyl)isoxazole] displayed a melting point of 135.3 to 137.1 °C. In addition, the IC50 in the series on Huh7 turned out to be 6.7 µM. The IC50 in the series with MCF7 was greater than 20 µM. This compound displayed an IC50 in the series with MCF7 (Homo sapiens, MCF7, 72 h) of no less than 20 µM.

For `Cc1ccccc1COc1ccc(-c2noc(C)c2-c2cccc(C(F)(F)F)c2)cc1` [compound 49, 5-Methyl-4-(3-trifluoromethylphenyl)-3-(4-((2-methylbenzyl)oxy)phenyl)isoxazole], the melting point lay in the range of 120.7 to 122.4 °C. The compound also had an IC50 in the series with Huh7 of 19 µM. Also, in the series on MCF7 (Homo sapiens, MCF7, 72 h), the IC50 was greater than 20 µM.

For `Cc1ccccc1COc1ccc(-c2noc(C)c2-c2ccc(N)cc2)cc1` [compound 51, 5-Methyl-4-(4-aminophenyl)-3-(4-((2-methylbenzyl)oxy)phenyl)isoxazole], the melting point lay within 119.4 to 121.1 °C. The IC50 in the series on Huh7 worked out at 16.9 µM. In addition, the IC50 in the series on MCF7 (Homo sapiens, MCF7, 72 h) turned out to be 19.7 µM.

In the case of `Cc1ccccc1COc1ccc(-c2noc(C)c2-c2ccc(Cl)cc2Cl)cc1` [compound 53, 5-Methyl-4-(2,4-dichlorophenyl)-3-(4-((2-methylbenzyl)oxy)phenyl)isoxazole], the melting point fell in the range of 98 to 98.4 °C. Also, the IC50 with Huh7 was determined as 8.2 µM. In the series on MCF7 (Homo sapiens, MCF7, 72 h), this compound yielded an IC50 of 19.2 µM.

With `Cc1ccc(-c2c(-c3ccc(OCc4ccccc4C)cc3)noc2C)nc1` [compound 54, 5-Methyl-3-(4-((2-methylbenzyl)oxy)phenyl)-4-(5-methylpyridin-2-yl)isoxazole], the melting point is 121.4 to 122.3 °C. The midpoint of inhibition in the series with Huh7, the IC50, lay at 6.4 µM. Besides, in the series on MCF7 (Homo sapiens, MCF7, 72 h), the IC50 is greater than 20 µM.

In turn, `Cc1ccccc1COc1ccc(-c2noc(C)c2-c2ccncc2)cc1` [compound 55, 5-Methyl-3-(4-((2-methylbenzyl)oxy)phenyl)-4-(pyridin-4-yl)isoxazole] showed a melting point of 128.5 to 129.3 °C. The same compound gave an IC50 in the series on Huh7 greater than 20 µM. The compound also displayed an IC50 in the series on MCF7 (Homo sapiens, MCF7, 72 h) greater than 20 µM.

`Cc1ccccc1COc1ccc(-c2noc(C)c2-c2ccc(Cl)cc2)c(F)c1` [compound 56, 4-(4-Chlorophenyl)-3-(2-fluoro-4-((2-methylbenzyl)oxy)phenyl)-5-methylisoxazole] came in with a melting point of 96.1 to 98.3 °C. For the same compound, in the series with Huh7, the IC50 is 2.25 µM. This compound displayed an IC50 with MCF7 (Homo sapiens, MCF7, 72 h) of 9.53 µM.

Regarding `Cc1ccccc1COc1ccc(-c2noc(C)c2-c2ccc(Cl)cc2)cc1F` [compound 57, 4-(4-Chlorophenyl)-3-(3-fluoro-4-((2-methylbenzyl)oxy)phenyl)-5-methylisoxazole], the melting point fell in the range of 108 to 110.2 °C. The same compound displayed an IC50 with Huh7 of 9.8 µM. Also, the IC50 in the series with MCF7 (Homo sapiens, MCF7, 72 h) is greater than 20 µM.

In turn, `Cc1ccccc1CNc1ccc(-c2noc(C)c2-c2ccc(Cl)cc2)cc1` [compound 59, 4-(4-(4-Chlorophenyl)-5-methylisoxazol-3-yl)-N-(2-methylbenzyl)aniline] had a melting point of 134.9 to 137 °C. In the series on Huh7, half-maximal inhibition (IC50) was put at 4 µM. Further, the IC50 in the series on MCF7 is greater than 20 µM. Also, the IC50 in the series on MCF7 (Homo sapiens, MCF7, 72 h) was no less than 20 µM.

In turn, `Cc1ccccc1COc1ccc(-c2onc(C)c2-c2ccc(Cl)cc2)cc1` [compound 60, 4-(4-Chlorophenyl)-3-methyl-5-(4-((2-methylbenzyl)oxy)phenyl)isoxazole] came in with a melting point of 153.8 to 154.9 °C. Further, the IC50 in the series with Huh7 turned out to be 3.8 µM. Moreover, the IC50 with MCF7 amounted to 19.6 µM. Besides, the IC50 in the series on MCF7 (Homo sapiens, MCF7, 72 h) was roughly 19 µM. The compound further had an IC50 in the series with Mahlavu (Homo sapiens, Mahlavu, 72 h) of 9.4 µM.

`Cc1ccccc1COc1ccc(-c2oncc2-c2ccc(Cl)cc2)cc1` [compound 63, 4-(4-Chlorophenyl)-5-(4-((2-methylbenzyl)oxy)phenyl)isoxazole] yielded a melting point of 115.3 to 117.3 °C. In the series with Huh7, this compound showed an IC50 of 1.5 µM. In the series with MCF7, this compound came in with a half-inhibitory concentration (IC50) greater than 20 µM. This compound also yielded an IC50 in the series with MCF7 (Homo sapiens, MCF7, 72 h) of no less than 20 µM. In the series on Mahlavu, this compound registered an IC50 of 20.1 µM. In the series on Mahlavu (Homo sapiens, Mahlavu, 72 h), this compound showed a concentration for half-maximal inhibition (IC50) of no less than 20 µM.

A word on the IC50: it is the point on the concentration scale where inhibition reaches its midpoint. What is called melting point is the temperature of the solid-liquid transition.

(Values after publication PMC9583322, “Vicinal Diaryl-Substituted Isoxazole and Pyrazole Derivatives with In Vitro Growth Inhibitory and In Vivo Antitumor Activity” (ACS Omega, 2022).)
